Test results as given in patent publication US9226916B2, “Pyrrolidine derivatives” (HOFFMANN-LA ROCHE INC., priority 2009, dated 2016).

Target: T1, recombinant human NK3 receptor (Homo sapiens, UniProt P29371)
T1 construct: expressed in transfected cells; host or cells: HEK293 cells, transient expression; membranes
T1 sequence (P29371 1-465): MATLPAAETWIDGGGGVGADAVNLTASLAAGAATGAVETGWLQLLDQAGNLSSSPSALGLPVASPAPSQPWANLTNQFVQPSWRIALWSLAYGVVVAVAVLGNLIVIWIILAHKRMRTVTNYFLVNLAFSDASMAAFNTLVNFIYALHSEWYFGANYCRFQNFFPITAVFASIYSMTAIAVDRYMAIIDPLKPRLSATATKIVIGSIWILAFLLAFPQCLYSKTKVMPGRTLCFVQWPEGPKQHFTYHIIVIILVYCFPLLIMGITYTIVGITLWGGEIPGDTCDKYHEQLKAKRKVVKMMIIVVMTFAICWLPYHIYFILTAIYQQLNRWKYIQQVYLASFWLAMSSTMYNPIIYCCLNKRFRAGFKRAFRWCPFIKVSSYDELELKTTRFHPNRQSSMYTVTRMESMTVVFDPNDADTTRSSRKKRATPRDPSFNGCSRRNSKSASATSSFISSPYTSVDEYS
Test: [3H]SR142801 competition binding assay

SMILES	Ki [nM]
CN(C(=O)OCCCC(F)(F)F)[C@H]1CN(C(=O)C2CCN(c3ccc(C#N)cn3)CC2)C[C@@H]1c1ccc(Cl)cc1 [Example 128, [(3R,4S)-4-(4-Chloro-phenyl)-1-(5′-cyano-3,4,5,6-tetrahydro-2H-[1,2′]bipyridinyl-4-carbonyl)-pyrrolidin-3-yl]-methyl-carbamic acid 4,4,4-trifluoro-butyl ester]	68
CN(C(=O)Oc1ccc(F)cc1)[C@@H]1CN(C(=O)C2CCN(C(=O)C3(C)CC3)CC2)C[C@H]1c1ccc(F)cc1 [Example 129, {(3S,4R)-4-(4-Fluoro-phenyl)-1-[1-(1-methyl-cyclopropanecarbonyl)-piperidine-4-carbonyl]-pyrrolidin-3-yl}-methyl-carbamic acid 4-fluoro-phenyl ester]	13.7
CN(C(=O)Oc1ccc(F)cc1)[C@@H]1CN(C(=O)C2CCN(c3ccc(C#N)cn3)CC2)C[C@H]1c1ccc(F)cc1 [Example 131, [(3S,4R)-1-(5′-Cyano-3,4,5,6-tetrahydro-2H-[1,2′]bipyridinyl-4-carbonyl)-4-(4-fluoro-phenyl)-pyrrolidin-3-yl]-methyl-carbamic acid 4-fluoro-phenyl ester]	1
CN(C(=O)Oc1ccc(F)cc1)[C@H]1CN(C(=O)C2CCN(c3ccc(C#N)cn3)CC2)C[C@@H]1c1ccc(F)cc1 [Example 132, [(3R,4S)-1-(5′-Cyano-3,4,5,6-tetrahydro-2H-[1,2′]bipyridinyl-4-carbonyl)-4-(4-fluoro-phenyl)-pyrrolidin-3-yl]-methyl-carbamic acid 4-fluoro-phenyl ester]	55.6
CN(C(=O)Oc1ccc(F)cc1)[C@@H]1CN(C(=O)C2CCN(C(=O)OC(C)(C)C)CC2)C[C@H]1c1ccc(Cl)cc1 [Example 133, 4-{(3R,4S)-3-(4-Chloro-phenyl)-4-[(4-fluoro-phenoxycarbonyl)-methyl-amino]-pyrrolidine-1-carbonyl}-piperidine-1-carboxylic acid tert-butyl ester]	3
Cc1nnc(N2CCC(C(=O)N3C[C@@H](N(C)C(=O)Oc4ccc(F)cc4)[C@H](c4ccc(Cl)cc4)C3)CC2)o1 [Example 134, {(3S,4R)-4-(4-Chloro-phenyl)-1-[1-(5-methyl-[1,3,4]oxadiazol-2-yl)-piperidine-4-carbonyl]-pyrrolidin-3-yl}-methyl-carbamic acid 4-fluoro-phenyl ester]	3.6
CN(C(=O)Oc1ccc(F)cc1)[C@@H]1CN(C(=O)C2CCNCC2)C[C@H]1c1ccc(Cl)cc1 [Example 135, [(3S,4R)-4-(4-Chloro-phenyl)-1-(piperidine-4-carbonyl)-pyrrolidin-3-yl]-methyl-carbamic acid 4-fluoro-phenyl ester]	40.3
CCCOC(=O)N(C)[C@@H]1CN(C(=O)C2CCN(c3ccc(C#N)cn3)CC2)C[C@H]1c1ccc(Cl)cc1 [Example 138, [(3S,4R)-4-(4-Chloro-phenyl)-1-(5′-cyano-3,4,5,6-tetrahydro-2H-[1,2′]bipyridinyl-4-carbonyl)-pyrrolidin-3-yl]-methyl-carbamic acid propyl ester]	37.1
CC(C)COC(=O)N(C)[C@@H]1CN(C(=O)C2CCN(c3ccc(C#N)cn3)CC2)C[C@H]1c1ccc(Cl)cc1 [Example 139, [(3S,4R)-4-(4-Chloro-phenyl)-1-(5′-cyano-3,4,5,6-tetrahydro-2H-[1,2′]bipyridinyl-4-carbonyl)-pyrrolidin-3-yl]-methyl-carbamic acid isobutyl ester]	3.9
CN(C(=O)Oc1ccc(F)cc1)[C@@H]1CN(C(=O)C2CCN(c3ccc(C#N)nn3)CC2)C[C@H]1c1ccc(Cl)cc1 [Example 140, {(3S,4R)-4-(4-Chloro-phenyl)-1-[1-(6-cyano-pyridazin-3-yl)-piperidine-4-carbonyl]-pyrrolidin-3-yl}-methyl-carbamic acid 4-fluoro-phenyl ester]	0.9
